Measured values from PMC7913927, “Leishmanicidal Activity of Betulin Derivatives in Leishmania amazonensis; Effect on Plasma and Mitochondrial Membrane Potential, and Macrophage Nitric Oxide and Superoxide Production” (Microorganisms, 2021).
Read-outs that look alike come from different tables or passages of the source.

Columns and labels:
[1] = test system: VE2000MM intracellular amastigotes in J774.1 macrophages; experiment: Macrophage-amastigote model, patient isolate VE2000MM; format: cell-based, Leishmania amazonensis; conditions: for Regresion (GraphPad 6) of %Control vs dose (50% inhibitory concentration) / Growth (%) Exp1 %Control / Growth (%) Exp1 A/100MØ / Growth (%) Exp1 A/MØ / Growth (%) Exp1 Infección / Growth (%) Exp2 %Control / Growth (%) Exp2 A/100MØ / Growth (%) Exp2 A/MØ / Growth (%) Exp2 Infección / Growth (%) Exp3 %Control / Growth (%) Exp3 A/100MØ / Growth (%) Exp3 A/MØ / Growth (%) Exp3 Infección / Average A/100MØ: VE2000MM; for Regresion (GraphPad 6) of %Control vs dose (50% inhibitory concentration): unit from Dose head; for Average A/100MØ: average of Exp1-3
Procedure: We used a previously described methodology, with some modifications. Macrophage monolayers, grown in RMPIc medium, for 3 days, were detached from the bottom of the culture chamber, by physical treatment (low temperature and light strokes). Obtained macrophages were seeded in flat-bottom 96-well culture plates, at a density of 2 × 10^5 cells mL^−1 (40,000 macrophages/well), in a final volume of 200 µL. Plates were incubated for 2 h, and the supernatant was discarded to remove non-adhered macrophages. Medium was replaced with stationary-phase promastigotes suspended in 200 µL of RPMIc (2 × 10^6 parasites mL^−1, 400,000 parasites/well), at a macrophage: parasite ratio 1:10 [40]. The plates were incubated for 4 h. Afterwards the medium was replaced with fresh RPMIc and increasing concentrations of compounds or drugs tested were applied, in volumes of 2 µL, according to the different treatment groups. Plates were kept for 72 h, at 37 °C and 5% CO2. The medium was discarded and the wells were washed twice with PBS. Next, a Giemsa staining was performed in situ. It consisted of adding 200 µL of methanol/well, incubating for 5 min, discarding the fixative, and letting it dry at room temperature. Later, the Giemsa solution (10% in PBS w/v, 200 µL/well) was added, incubated for 10 min, and washed with PBS, allowing it to dry. Finally, the bottom of the plates was detached by percussion and the circular bottoms (wells) were fixed to slides with Permount synthetic resin, for later evaluation (Alcazar W., manuscript in preparation). Cell counting was performed with a 100× immersion objective. A minimum of 200 random macrophages were examined. The percentage of infected macrophages (% infection) and the average number of amastigotes present in infected macrophages (amastigotes) were determined. […] The infection rate represents the number of intracellular amastigotes per 100 macrophages evaluated. Additionally, the GI50 for the decrease in the infection rate was calculated. At least three independent experiments were performed. The effect of amphotericin-B (AmB) [Sigma-Aldrich, (St. Louis, MO, USA)] was included as positive control of the assay.

[2] = test system: L. (L.) braziliensis MHOM/BR/LTB300; set-up: method as in PMID 25240731; conditions: cited from earlier work

C=C(C)C1CCC2(C=NO)CCC3(C)C(CCC4C5(C)CCC(=NO)C(C)(C)C5CCC43C)C12 (centres unmarked) [Compound 18]
SI (CC50/GI50) VE2000MM ([1]; J774.1 CC50 / intracellular amastigote GI50, Table 2): 66.79
GI50 ([1]; VE2000MM intracellular amastigotes, read-out: GI50 (µM) Experiment 1 Regresion): 0.87 µM
GI50 ([1]; VE2000MM intracellular amastigotes, read-out: GI50 (µM) Experiment 2 Regresion): 0.43 µM
GI50 ([1]; VE2000MM intracellular amastigotes, read-out: GI50 (µM) Experiment 3 Regresion): 0.62 µM
Regresion (GraphPad 6) of %Control vs dose (50% inhibitory concentration) ([1]; Exp1): 0.87 µM
Regresion (GraphPad 6) of %Control vs dose (50% inhibitory concentration) ([1]; Exp2): 0.43 µM
Regresion (GraphPad 6) of %Control vs dose (50% inhibitory concentration) ([1]; Exp3): 0.62 µM
Growth (%) Exp1 %Control ([1]; dose 0.10 µM, Exp1): 85.88%
Growth (%) Exp1 A/100MØ ([1]; dose 0.10 µM, Exp1): 212.29
Growth (%) Exp1 A/MØ ([1]; dose 0.10 µM, Exp1): 3.35
Growth (%) Exp1 Infección ([1]; dose 0.10 µM, Exp1): 63.37%
Growth (%) Exp2 %Control ([1]; dose 0.10 µM, Exp2): 78.62%
Growth (%) Exp2 A/100MØ ([1]; dose 0.10 µM, Exp2): 190.11
Growth (%) Exp2 A/MØ ([1]; dose 0.10 µM, Exp2): 3.20
Growth (%) Exp2 Infección ([1]; dose 0.10 µM, Exp2): 59.41%
Growth (%) Exp3 %Control ([1]; dose 0.10 µM, Exp3): 72.17%
Growth (%) Exp3 A/100MØ ([1]; dose 0.10 µM, Exp3): 163.09
Growth (%) Exp3 A/MØ ([1]; dose 0.10 µM, Exp3): 3.10
Growth (%) Exp3 Infección ([1]; dose 0.10 µM, Exp3): 52.61%
Average A/100MØ ([1]; dose 0.10 µM): 188.50
Growth (%) Exp1 %Control ([1]; dose 0.50 µM, Exp1): 66.72%
Growth (%) Exp1 A/100MØ ([1]; dose 0.50 µM, Exp1): 164.92
Growth (%) Exp1 A/MØ ([1]; dose 0.50 µM, Exp1): 2.90
Growth (%) Exp1 Infección ([1]; dose 0.50 µM, Exp1): 56.87%
Growth (%) Exp2 %Control ([1]; dose 0.50 µM, Exp2): 51.58%
Growth (%) Exp2 A/100MØ ([1]; dose 0.50 µM, Exp2): 124.74
Growth (%) Exp2 A/MØ ([1]; dose 0.50 µM, Exp2): 2.98
Growth (%) Exp2 Infección ([1]; dose 0.50 µM, Exp2): 41.86%
Growth (%) Exp3 %Control ([1]; dose 0.50 µM, Exp3): 54.73%
Growth (%) Exp3 A/100MØ ([1]; dose 0.50 µM, Exp3): 123.67
Growth (%) Exp3 A/MØ ([1]; dose 0.50 µM, Exp3): 3.24
Growth (%) Exp3 Infección ([1]; dose 0.50 µM, Exp3): 38.17%
Average A/100MØ ([1]; dose 0.50 µM): 137.78
Growth (%) Exp1 %Control ([1]; dose 1.00 µM, Exp1): 45.38%
Growth (%) Exp1 A/100MØ ([1]; dose 1.00 µM, Exp1): 112.17
Growth (%) Exp1 A/MØ ([1]; dose 1.00 µM, Exp1): 2.76
Growth (%) Exp1 Infección ([1]; dose 1.00 µM, Exp1): 40.64%
Growth (%) Exp2 %Control ([1]; dose 1.00 µM, Exp2): 23.47%
Growth (%) Exp2 A/100MØ ([1]; dose 1.00 µM, Exp2): 56.76
Growth (%) Exp2 A/MØ ([1]; dose 1.00 µM, Exp2): 1.93
Growth (%) Exp2 Infección ([1]; dose 1.00 µM, Exp2): 29.41%
Growth (%) Exp3 %Control ([1]; dose 1.00 µM, Exp3): 44.34%
Growth (%) Exp3 A/100MØ ([1]; dose 1.00 µM, Exp3): 100.21
Growth (%) Exp3 A/MØ ([1]; dose 1.00 µM, Exp3): 2.85
Growth (%) Exp3 Infección ([1]; dose 1.00 µM, Exp3): 35.16%
Average A/100MØ ([1]; dose 1.00 µM): 89.71
Growth (%) Exp1 %Control ([1]; dose 5.00 µM, Exp1): 12.40%
Growth (%) Exp1 A/100MØ ([1]; dose 5.00 µM, Exp1): 30.64
Growth (%) Exp1 A/MØ ([1]; dose 5.00 µM, Exp1): 1.33
Growth (%) Exp1 Infección ([1]; dose 5.00 µM, Exp1): 23.04%
Growth (%) Exp2 %Control ([1]; dose 5.00 µM, Exp2): 17.91%
Growth (%) Exp2 A/100MØ ([1]; dose 5.00 µM, Exp2): 43.32
Growth (%) Exp2 A/MØ ([1]; dose 5.00 µM, Exp2): 2.00
Growth (%) Exp2 Infección ([1]; dose 5.00 µM, Exp2): 21.66%
Growth (%) Exp3 %Control ([1]; dose 5.00 µM, Exp3): 26.77%
Growth (%) Exp3 A/100MØ ([1]; dose 5.00 µM, Exp3): 60.50
Growth (%) Exp3 A/MØ ([1]; dose 5.00 µM, Exp3): 2.96
Growth (%) Exp3 Infección ([1]; dose 5.00 µM, Exp3): 20.44%
Average A/100MØ ([1]; dose 5.00 µM): 44.82
Growth (%) Exp1 %Control ([1]; dose 10.00 µM, Exp1): 11.00%
Growth (%) Exp1 A/100MØ ([1]; dose 10.00 µM, Exp1): 27.18
Growth (%) Exp1 A/MØ ([1]; dose 10.00 µM, Exp1): 1.50
Growth (%) Exp1 Infección ([1]; dose 10.00 µM, Exp1): 18.12%
Growth (%) Exp2 %Control ([1]; dose 10.00 µM, Exp2): 9.36%
Growth (%) Exp2 A/100MØ ([1]; dose 10.00 µM, Exp2): 22.64
Growth (%) Exp2 A/MØ ([1]; dose 10.00 µM, Exp2): 1.78
Growth (%) Exp2 Infección ([1]; dose 10.00 µM, Exp2): 12.72%
Growth (%) Exp3 %Control ([1]; dose 10.00 µM, Exp3): 7.87%
Growth (%) Exp3 A/100MØ ([1]; dose 10.00 µM, Exp3): 17.78
Growth (%) Exp3 A/MØ ([1]; dose 10.00 µM, Exp3): 1.69
Growth (%) Exp3 Infección ([1]; dose 10.00 µM, Exp3): 10.52%
Average A/100MØ ([1]; dose 10.00 µM): 22.53
GI50 ([1]; intracellular amastigotes, Supplementary Materials II, read-out: GI50 (µM) VE2000MM, mean of three experiments): 0.64 µM
inhibition of parasite migration [2]: inhibited parasite migration at nano and picomolar concentrations
